Assay results as given in publication PMC11822212, “High-throughput screening identifies Aurora kinase B as a critical therapeutic target for Merkel cell carcinoma” (Nature Communications, 2025).
Counter-ions that a name gives are not always drawn. Like-named read-outs stand apart in the source and are kept apart here.

Tests used:
MCC13 cells (VN-MCC) = assay: qHTS cell viability (CellTiter-Glo, 72 h; primary and follow-up small molecule screen); type: cell-based, human; conditions: for Area under the dose-response curve (AUC) MCC13: primary high-throughput screen, viability 72 h, n = 1
MKL-1 cells (VP-MCC) = assay: as above; type: cell-based, human; conditions: for Area under the dose-response curve (AUC) MKL-1: primary high-throughput screen, viability 72 h, n = 1
NIH-3T3 cells = assay: qHTS cell viability (CellTiter-Glo, 72 h; primary screen), control cell line; type: cell-based, mouse; conditions: for Area under the dose-response curve (AUC) NIH3T3: primary high-throughput screen, viability 72 h, n = 1
CRL-7250 cells = assay: as above; type: cell-based; conditions: for Area under the dose-response curve (AUC) CRL7250: primary high-throughput screen, viability 72 h, n = 1
HEK293T cells = assay: as above; type: cell-based, human; conditions: for Area under the dose-response curve (AUC) HEK293T: primary high-throughput screen, viability 72 h, n = 1
MCC26 cells (VN-MCC) = assay: qHTS cell viability (CellTiter-Glo, 72 h; primary and follow-up small molecule screen); type: cell-based, human; conditions: for Area under the dose-response curve (AUC) MCC26: primary high-throughput screen, viability 72 h, n = 1
MKL-2 cells (VP-MCC) = assay: as above; type: cell-based, human; conditions: for Area under the dose-response curve (AUC) MKL-2: primary high-throughput screen, viability 72 h, n = 1
UISO cells (VN-MCC) = assay: as above; type: cell-based, human; conditions: for Area under the dose-response curve (AUC) UISO: primary high-throughput screen, viability 72 h, n = 1
HACAT cells = assay: qHTS cell viability (CellTiter-Glo, 72 h; primary screen), control cell line; type: cell-based, human; conditions: for Area under the dose-response curve (AUC) HACAT: primary high-throughput screen, viability 72 h, n = 1
WAGA cells (VP-MCC) = assay: qHTS cell viability (CellTiter-Glo, 72 h; primary and follow-up small molecule screen); type: cell-based, human; conditions: for Area under the dose-response curve (AUC) WAGA: primary high-throughput screen, viability 72 h, n = 1
[1] = area under the dose-response curve, MCC13 cells, AUC<450 = reduced viability
[2] = area under the dose-response curve, MKL-1 cells, AUC<450 = reduced viability
[3] = area under the dose-response curve, NIH3T3 control cells, AUC<450 = reduced viability
[4] = area under the dose-response curve, CRL7250 control cells, AUC<450 = reduced viability
[5] = area under the dose-response curve, HEK293T control cells, AUC<450 = reduced viability
[6] = area under the dose-response curve, MCC26 cells, AUC<450 = reduced viability
[7] = area under the dose-response curve, MKL-2 cells, AUC<450 = reduced viability
[8] = area under the dose-response curve, UISO cells, AUC<450 = reduced viability
[9] = area under the dose-response curve, HACAT control cells, AUC<450 = reduced viability
[10] = area under the dose-response curve, WAGA cells, AUC<450 = reduced viability

SMILES: O=C(O)/C=C(\CC(=O)O)C(=O)O [trans-Aconitic acid]
- MCC13_AUC (MCC13 cells (VN-MCC); [1]): 525.202
- MKL1_AUC (MKL-1 cells (VP-MCC); [2]): 435.147
- NIH3T3_AUC (NIH-3T3 cells; [3]): 503.673
- CRL7250_AUC (CRL-7250 cells; [4]): 486.622
- HEK293T_AUC (HEK293T cells; [5]): 467.145
- MCC26_AUC (MCC26 cells (VN-MCC); [6]): 496.696
- MKL2_AUC (MKL-2 cells (VP-MCC); [7]): 378.194
- UISO_AUC (UISO cells (VN-MCC); [8]): 494.852
- HACAT_AUC (HACAT cells; [9]): 490.879
- WAGA_AUC (WAGA cells (VP-MCC); [10]): 441.902

SMILES: c1cc(-c2sc(-c3ccncc3)c(-c3ccncc3)c2-c2ccncc2)ccn1 [NSC-75503, reference compound]
- Area under the dose-response curve (AUC) MCC13 (MCC13 cells (VN-MCC)): 492.9
- Area under the dose-response curve (AUC) MKL-1 (MKL-1 cells (VP-MCC)): 478.1
- Area under the dose-response curve (AUC) NIH3T3 (NIH-3T3 cells): 481.5
- Area under the dose-response curve (AUC) CRL7250 (CRL-7250 cells): 461.0
- Area under the dose-response curve (AUC) HEK293T (HEK293T cells): 450.5
- Area under the dose-response curve (AUC) MCC26 (MCC26 cells (VN-MCC)): 468.9
- Area under the dose-response curve (AUC) MKL-2 (MKL-2 cells (VP-MCC)): 550.2
- Area under the dose-response curve (AUC) UISO (UISO cells (VN-MCC)): 456.0
- Area under the dose-response curve (AUC) HACAT (HACAT cells): 453.3
- Area under the dose-response curve (AUC) WAGA (WAGA cells (VP-MCC)): 489.4

SMILES: CCOc1cc(N)c(Cl)cc1C(=O)NCC1CN(Cc2ccc(F)cc2)CCO1 (stereo not drawn) [Mosapride citrate]
- MCC13_AUC (MCC13 cells (VN-MCC); [1]): 479.818
- MKL1_AUC (MKL-1 cells (VP-MCC); [2]): 438.77
- NIH3T3_AUC (NIH-3T3 cells; [3]): 470.089
- CRL7250_AUC (CRL-7250 cells; [4]): 480.736
- HEK293T_AUC (HEK293T cells; [5]): 457.079
- MCC26_AUC (MCC26 cells (VN-MCC); [6]): 466.055
- MKL2_AUC (MKL-2 cells (VP-MCC); [7]): 377.067
- UISO_AUC (UISO cells (VN-MCC); [8]): 489.758
- HACAT_AUC (HACAT cells; [9]): 473.779
- WAGA_AUC (WAGA cells (VP-MCC); [10]): 443.892

SMILES: O=c1cccc2n1C[C@@H]1CNC[C@H]2C1 [Cytisine]
- Area under the dose-response curve (AUC) MCC13 Replicate 1 (MCC13 cells (VN-MCC)): 466.2
- Area under the dose-response curve (AUC) MCC13 Replicate 2 (MCC13 cells (VN-MCC)): 472.1
- Area under the dose-response curve (AUC) MCC13 Replicate 3 (MCC13 cells (VN-MCC)): 495.9
- MCC13_AUC (MCC13 cells (VN-MCC)): 474.327
- Area under the dose-response curve (AUC) MKL-1 Replicate 1 (MKL-1 cells (VP-MCC)): 469.7
- Area under the dose-response curve (AUC) MKL-1 Replicate 2 (MKL-1 cells (VP-MCC)): 497.8
- Area under the dose-response curve (AUC) MKL-1 Replicate 3 (MKL-1 cells (VP-MCC)): 481.7
- MKL1_AUC (MKL-1 cells (VP-MCC)): 435.746
- NIH3T3_AUC (NIH-3T3 cells): 477.468
- CRL7250_AUC (CRL-7250 cells): 469.524
- HEK293T_AUC (HEK293T cells): 476.432
- Area under the dose-response curve (AUC) MCC26 Replicate 1 (MCC26 cells (VN-MCC)): 425.8
- Area under the dose-response curve (AUC) MCC26 Replicate 2 (MCC26 cells (VN-MCC)): 426.1
- Area under the dose-response curve (AUC) MCC26 Replicate 3 (MCC26 cells (VN-MCC)): 461.0
- MCC26_AUC (MCC26 cells (VN-MCC)): 479.664
- Area under the dose-response curve (AUC) MKL-2 Replicate 1 (MKL-2 cells (VP-MCC)): 465.6
- Area under the dose-response curve (AUC) MKL-2 Replicate 2 (MKL-2 cells (VP-MCC)): 500.2
- Area under the dose-response curve (AUC) MKL-2 Replicate 3 (MKL-2 cells (VP-MCC)): 495.6
- MKL2_AUC (MKL-2 cells (VP-MCC)): 398.634
- Area under the dose-response curve (AUC) UISO Replicate 1 (UISO cells (VN-MCC)): 456.3
- Area under the dose-response curve (AUC) UISO Replicate 2 (UISO cells (VN-MCC)): 469.0
- Area under the dose-response curve (AUC) UISO Replicate 3 (UISO cells (VN-MCC)): 502.6
- UISO_AUC (UISO cells (VN-MCC)): 498.318
- HACAT_AUC (HACAT cells): 465.853
- Area under the dose-response curve (AUC) WAGA Replicate 1 (WAGA cells (VP-MCC)): 496.1
- Area under the dose-response curve (AUC) WAGA Replicate 2 (WAGA cells (VP-MCC)): 525.9
- Area under the dose-response curve (AUC) WAGA Replicate 3 (WAGA cells (VP-MCC)): 499.6
- WAGA_AUC (WAGA cells (VP-MCC)): 346.525

SMILES: CCCCCCCCCCCC1=C(O)C(=O)C=C(O)C1=O [Embelin]
- MCC13_AUC (MCC13 cells (VN-MCC); [1]): 489.799
- Area under the dose-response curve (AUC) MCC13 Replicate 1 (MCC13 cells (VN-MCC); follow-up screen, MCC13, replicate 1): 496.2
- Area under the dose-response curve (AUC) MCC13 Replicate 2 (MCC13 cells (VN-MCC); follow-up screen, MCC13, replicate 2): 470.6
- Area under the dose-response curve (AUC) MCC13 Replicate 3 (MCC13 cells (VN-MCC); follow-up screen, MCC13, replicate 3): 448.5
- MKL1_AUC (MKL-1 cells (VP-MCC); [2]): 418.887
- Area under the dose-response curve (AUC) MKL-1 Replicate 1 (MKL-1 cells (VP-MCC); follow-up screen, MKL-1, replicate 1): 561.5
- Area under the dose-response curve (AUC) MKL-1 Replicate 2 (MKL-1 cells (VP-MCC); follow-up screen, MKL-1, replicate 2): 475.0
- Area under the dose-response curve (AUC) MKL-1 Replicate 3 (MKL-1 cells (VP-MCC); follow-up screen, MKL-1, replicate 3): 443.8
- NIH3T3_AUC (NIH-3T3 cells; [3]): 468.399
- CRL7250_AUC (CRL-7250 cells; [4]): 461.338
- HEK293T_AUC (HEK293T cells; [5]): 470.759
- MCC26_AUC (MCC26 cells (VN-MCC); [6]): 492.758
- Area under the dose-response curve (AUC) MCC26 Replicate 1 (MCC26 cells (VN-MCC); follow-up screen, MCC26, replicate 1): 439.2
- Area under the dose-response curve (AUC) MCC26 Replicate 2 (MCC26 cells (VN-MCC); follow-up screen, MCC26, replicate 2): 416.6
- Area under the dose-response curve (AUC) MCC26 Replicate 3 (MCC26 cells (VN-MCC); follow-up screen, MCC26, replicate 3): 455.7
- MKL2_AUC (MKL-2 cells (VP-MCC); [7]): 427.936
- Area under the dose-response curve (AUC) MKL-2 Replicate 1 (MKL-2 cells (VP-MCC); follow-up screen, MKL-2, replicate 1): 476.0
- Area under the dose-response curve (AUC) MKL-2 Replicate 2 (MKL-2 cells (VP-MCC); follow-up screen, MKL-2, replicate 2): 454.8
- Area under the dose-response curve (AUC) MKL-2 Replicate 3 (MKL-2 cells (VP-MCC); follow-up screen, MKL-2, replicate 3): 454.5
- UISO_AUC (UISO cells (VN-MCC); [8]): 474.744
- Area under the dose-response curve (AUC) UISO Replicate 1 (UISO cells (VN-MCC); follow-up screen, UISO, replicate 1): 471.2
- Area under the dose-response curve (AUC) UISO Replicate 2 (UISO cells (VN-MCC); follow-up screen, UISO, replicate 2): 418.0
- Area under the dose-response curve (AUC) UISO Replicate 3 (UISO cells (VN-MCC); follow-up screen, UISO, replicate 3): 438.8
- HACAT_AUC (HACAT cells; [9]): 451.959
- WAGA_AUC (WAGA cells (VP-MCC); [10]): 416.987
- Area under the dose-response curve (AUC) WAGA Replicate 1 (WAGA cells (VP-MCC); follow-up screen, WAGA, replicate 1): 543.3
- Area under the dose-response curve (AUC) WAGA Replicate 2 (WAGA cells (VP-MCC); follow-up screen, WAGA, replicate 2): 384.9
- Area under the dose-response curve (AUC) WAGA Replicate 3 (WAGA cells (VP-MCC); follow-up screen, WAGA, replicate 3): 441.0

SMILES: CN1CCN(CCCN2c3ccccc3Sc3ccc(C(F)(F)F)cc32)CC1 [Trifluoperazine hydrochloride, reference compound]
- Area under the dose-response curve (AUC) MCC13 (MCC13 cells (VN-MCC)): 486.4
- Area under the dose-response curve (AUC) MKL-1 (MKL-1 cells (VP-MCC)): 497.8
- Area under the dose-response curve (AUC) NIH3T3 (NIH-3T3 cells): 467.6
- Area under the dose-response curve (AUC) CRL7250 (CRL-7250 cells): 412.6
- Area under the dose-response curve (AUC) HEK293T (HEK293T cells): 471.8
- Area under the dose-response curve (AUC) MCC26 (MCC26 cells (VN-MCC)): 481.8
- Area under the dose-response curve (AUC) MKL-2 (MKL-2 cells (VP-MCC)): 488.7
- Area under the dose-response curve (AUC) UISO (UISO cells (VN-MCC)): 500.3
- Area under the dose-response curve (AUC) HACAT (HACAT cells): 455.5
- Area under the dose-response curve (AUC) WAGA (WAGA cells (VP-MCC)): 495.2
